# Structures can show the parent of a compound that is named as a salt.
# Test system: subjects with Dravet syndrome
# Experiment: Study 1503: open-label long-term extension, CGI-I at baseline and final visit
# Type: in vivo, Human
# Experimental: Study 1503 was an open-label, long-term safety study of ZX008 in subjects with Dravet syndrome who successfully completed 14 weeks of treatment in 1501, 1502, or 1504 Cohorts 1 and 2. […] CGI-S(baseline scores) were determined at entry into 1503 (i.e., after completing a blinded 16 week trial) and then again at each patient's final visit. FIGS. 7 and 8, and Tables 3 and 4 present numbers of patients having each of the 7 ratings and statistical calculations of improvements.
# The CGI scale measures the change in the subject's clinical status from a specific point in time, i.e., the Baseline Period (and also referred to as the CGI-S, an initial ranking of severity). The CGI rating scale permits a global evaluation of the subject's improvement over time.
smiles,measurement,setting,value
"CCNC(C)Cc1cccc(C(F)(F)F)c1 (stereo not drawn) [ZX008, fenfluramine hydrochloride]","CGI-I investigator, 1 = Very much improved, % of subjects",OLE Baseline,(15.8) %
same,"CGI-I investigator, 1 = Very much improved, N of subjects",OLE Baseline,35
same,"CGI-I investigator, 2 = Much improved, % of subjects",OLE Baseline,(24.4) %
same,"CGI-I investigator, 2 = Much improved, N of subjects",OLE Baseline,54
same,"CGI-I investigator, 3 = Minimally improved, % of subjects",OLE Baseline,(20.8) %
same,"CGI-I investigator, 3 = Minimally improved, N of subjects",OLE Baseline,46
same,"CGI-I investigator, 4 = No change, % of subjects",OLE Baseline,(32.6) %
same,"CGI-I investigator, 4 = No change, N of subjects",OLE Baseline,72
same,"CGI-I investigator, 5 = Minimally worse, % of subjects",OLE Baseline,(5.0) %
same,"CGI-I investigator, 5 = Minimally worse, N of subjects",OLE Baseline,11
same,"CGI-I investigator, 6 = Much worse, % of subjects",OLE Baseline,(1.4) %
same,"CGI-I investigator, 6 = Much worse, N of subjects",OLE Baseline,3
same,"CGI-I investigator, 7 = Very much worse, % of subjects",OLE Baseline,(0.0) %
same,"CGI-I investigator, 7 = Very much worse, N of subjects",OLE Baseline,0
same,"CGI-I investigator, Improved (1, 2, 3), %",OLE Baseline,(61.1) %
same,"CGI-I investigator, Much/very much improved (1, 2), %",OLE Baseline,(40.3) %
same,"CGI-I parent/caregiver, 1 = Very much improved, % of subjects",OLE Baseline,(16.4) %
same,"CGI-I parent/caregiver, 1 = Very much improved, number of subjects",OLE Baseline,37
same,"CGI-I parent/caregiver, 2 = Much improved, % of subjects",OLE Baseline,(21.8) %
same,"CGI-I parent/caregiver, 2 = Much improved, number of subjects",OLE Baseline,49
same,"CGI-I parent/caregiver, 3 = Minimally improved, % of subjects",OLE Baseline,(19.1) %
same,"CGI-I parent/caregiver, 3 = Minimally improved, number of subjects",OLE Baseline,43
same,"CGI-I parent/caregiver, 4 = No change, % of subjects",OLE Baseline,(26.7) %
same,"CGI-I parent/caregiver, 4 = No change, number of subjects",OLE Baseline,60
same,"CGI-I parent/caregiver, 5 = Minimally worse, % of subjects",OLE Baseline,(10.7) %
same,"CGI-I parent/caregiver, 5 = Minimally worse, number of subjects",OLE Baseline,24
same,"CGI-I parent/caregiver, 6 = Much worse, % of subjects",OLE Baseline,(4.0) %
same,"CGI-I parent/caregiver, 6 = Much worse, number of subjects",OLE Baseline,9
same,"CGI-I parent/caregiver, 7 = Very much worse, % of subjects",OLE Baseline,(1.3) %
same,"CGI-I parent/caregiver, 7 = Very much worse, number of subjects",OLE Baseline,3
same,"CGI-I parent/caregiver, Improved (1, 2, 3), %",OLE Baseline,(57.3) %
same,"CGI-I parent/caregiver, Much/very much improved (1, 2), %",OLE Baseline,(38.2) %
same,"CGI-I investigator rating, Median","OLE Baseline, N 221, 7-point scale",3.0
same,"CGI-I investigator rating, Mean","OLE Baseline, N 221, scale 1 very much improved to 7 very much worse",2.9
same,"CGI-I parent/caregiver rating, Median","OLE Baseline, N 225, 7-point scale",3.0
same,"CGI-I parent/caregiver rating, Mean","OLE Baseline, N 225, scale 1 very much improved to 7 very much worse",3.1
same,"CGI-I investigator, 1 = Very much improved, % of subjects",OLE Final Visit,(27.6) %
same,"CGI-I investigator, 1 = Very much improved, N of subjects",OLE Final Visit,70
same,"CGI-I investigator, 2 = Much improved, % of subjects",OLE Final Visit,(36.6) %
same,"CGI-I investigator, 2 = Much improved, N of subjects",OLE Final Visit,93
same,"CGI-I investigator, 3 = Minimally improved, % of subjects",OLE Final Visit,(21.3) %
same,"CGI-I investigator, 3 = Minimally improved, N of subjects",OLE Final Visit,54
same,"CGI-I investigator, 4 = No change, % of subjects",OLE Final Visit,(7.9) %
same,"CGI-I investigator, 4 = No change, N of subjects",OLE Final Visit,20
same,"CGI-I investigator, 5 = Minimally worse, % of subjects",OLE Final Visit,(5.5) %
same,"CGI-I investigator, 5 = Minimally worse, N of subjects",OLE Final Visit,14
same,"CGI-I investigator, 6 = Much worse, % of subjects",OLE Final Visit,(1.2) %
same,"CGI-I investigator, 6 = Much worse, N of subjects",OLE Final Visit,3
same,"CGI-I investigator, 7 = Very much worse, % of subjects",OLE Final Visit,(0.0) %
same,"CGI-I investigator, 7 = Very much worse, N of subjects",OLE Final Visit,0
same,"CGI-I investigator, Improved (1, 2, 3), %",OLE Final Visit,(85.4) %
same,"CGI-I investigator, Much/very much improved (1, 2), %",OLE Final Visit,(64.2) %
same,"CGI-I parent/caregiver, 1 = Very much improved, % of subjects",OLE Final Visit,(27.0) %
same,"CGI-I parent/caregiver, 1 = Very much improved, number of subjects",OLE Final Visit,67
same,"CGI-I parent/caregiver, 2 = Much improved, % of subjects",OLE Final Visit,(35.5) %
same,"CGI-I parent/caregiver, 2 = Much improved, number of subjects",OLE Final Visit,88
same,"CGI-I parent/caregiver, 3 = Minimally improved, % of subjects",OLE Final Visit,(19.8) %
same,"CGI-I parent/caregiver, 3 = Minimally improved, number of subjects",OLE Final Visit,49
same,"CGI-I parent/caregiver, 4 = No change, % of subjects",OLE Final Visit,(7.7) %
same,"CGI-I parent/caregiver, 4 = No change, number of subjects",OLE Final Visit,19
same,"CGI-I parent/caregiver, 5 = Minimally worse, % of subjects",OLE Final Visit,(5.2) %
same,"CGI-I parent/caregiver, 5 = Minimally worse, number of subjects",OLE Final Visit,13
same,"CGI-I parent/caregiver, 6 = Much worse, % of subjects",OLE Final Visit,(4.0) %
same,"CGI-I parent/caregiver, 6 = Much worse, number of subjects",OLE Final Visit,10
same,"CGI-I parent/caregiver, 7 = Very much worse, % of subjects",OLE Final Visit,(0.8) %
same,"CGI-I parent/caregiver, 7 = Very much worse, number of subjects",OLE Final Visit,2
same,"CGI-I parent/caregiver, Improved (1, 2, 3), %",OLE Final Visit,(82.3) %
same,"CGI-I parent/caregiver, Much/very much improved (1, 2), %",OLE Final Visit,(62.5) %
same,"CGI-I parent/caregiver rating, Median","OLE Final Visit, n 248, 7-point scale",2.0
same,"CGI-I parent/caregiver rating, Mean","OLE Final Visit, n 248, scale 1 very much improved to 7 very much worse",2.4
same,"CGI-I investigator rating, Median","OLE Final Visit, n 254, 7-point scale",2.0
same,"CGI-I investigator rating, Mean","OLE Final Visit, n 254, scale 1 very much improved to 7 very much worse",2.3

# From patent publication US20200306210A1 (ZOGENIX INTERNATIONAL LIMITED, priority 2017, published 2020)
